{"source": "paper PMC5833756", "about": "“A novel ruthenium complex with xanthoxylin induces S-phase arrest and causes ERK1/2-mediated apoptosis in HepG2 cells through a p53-independent pathway” (Cell Death & Disease, 2018)", "key": {"[1]": {"system": "WT SV40 MEF", "format": "cell-based, mouse", "conditions": "Mus musculus, 72 h"}, "[2]": {"system": "BAD KO SV40 MEF", "format": "cell-based, mouse", "conditions": "Mus musculus, 72 h"}, "[3]": {"system": "HepG2 cell xenografts", "experiment": "Human hepatocellular carcinoma xenograft model", "format": "in vivo, C.B-17 SCID mice", "conditions": "0.3 mg/kg doxorubicin, 10 mg/kg 5-fluorouracil, i.p. once a day for 21 days", "experimental": "Animals were housed in cages with free access to food and water. All animals were kept under a 12:12 h light-dark cycle (lights on at 6:00 a.m.). The local Animal Ethics Committee approved the experimental protocol (number 06/2015).\n(§1) HepG2 cells (1 × 10^7 cells per 500 µL) were implanted subcutaneously into the left front armpit of the mice. […] The treatments were initiated one day after the tumor cell injection. The animals were treated intraperitoneally (200 µL per animal) once daily for 21 consecutive days. On the 22nd day, the animals were anesthetized, and peripheral blood samples were collected from the brachial artery. Animals were euthanized by anesthetic overdose, and tumors were excised and weighed."}, "[4]": {"conditions": "DOX 0.3 mg/kg, 5-FU 10 mg/kg", "experimental": "as §1\nTo assess the toxicological effects, mice were weighed at the beginning and at the end of the experiment. […] Hematological analysis was performed using light microscopy. Livers, kidneys, lungs and hearts were removed, weighed and examined for any signs of gross lesions, color changes and/or hemorrhages. After gross macroscopic examination, the tumors, livers, kidneys, lungs and hearts were fixed in 4% formalin buffer and embedded in paraffin. Tissue sections were stained with hematoxylin and eosin chromogens, and a pathologist performed the analysis under a light microscope."}, "[5]": {"system": "HepG2 cells", "experiment": "DNA synthesis quantification (methyl-[3H]-thymidine incorporation)", "format": "cell-based, human", "conditions": "HepG2, 12 μM", "protocol": "Cellular DNA synthesis was quantified by the incorporation of methyl-[^3H]-thymidine. Methyl-[^3H]-thymidine is a radiolabeled DNA precursor that is incorporated into newly synthesized DNA. Briefly, the complex was added along with 1 µCi of methyl-[^3H]-thymidine (PerkinElmer; Shelton, CT, USA) and incubated for 3 h. After this incubation period, cultures were harvested using a cell harvester (Brandel, Inc., Gaithersburg, MD, USA), and the amount of incorporated^3H-thymidine was determined using a liquid scintillation cocktail Hidex Maxilight (PerkinElmer Life Sciences; Groningen, GE, Netherlands) and a plate CHAMELEON V multilabel Counter (Mustionkatu 2, Turku, Finland). Mitoxantrone (Sigma-Aldrich) was used as the positive control."}, "[6]": {"system": "HepG2 cells", "experiment": "Trypan blue exclusion assay", "format": "cell-based, human"}, "[7]": {"system": "HCT116", "format": "cell-based, human", "conditions": "HCT116 (human colon carcinoma), 72 h"}, "[8]": {"system": "HepG2", "format": "cell-based, human", "conditions": "HepG2 (human hepatocellular carcinoma), monolayer, 72 h"}, "[9]": {"system": "HSC-3", "format": "cell-based, human", "conditions": "HSC-3 (human oral squamous cell carcinoma), 72 h"}, "[10]": {"system": "SCC-4", "format": "cell-based, human", "conditions": "SCC-4 (human oral squamous cell carcinoma), 72 h"}, "[11]": {"system": "HL-60", "format": "cell-based, human", "conditions": "HL-60 (human promyelocytic leukemia), 72 h"}, "[12]": {"system": "K-562", "format": "cell-based, human", "conditions": "K-562 (human chronic myelogenous leukemia), 72 h"}, "[13]": {"system": "B16-F10", "format": "cell-based, mouse", "conditions": "B16-F10 (murine melanoma), 72 h"}, "[14]": {"system": "MRC-5", "format": "cell-based", "conditions": "MRC-5 (human lung fibroblast, non-cancer), 72 h"}, "[15]": {"system": "PBMC", "format": "cell-based", "conditions": "PBMC (human peripheral blood mononuclear cells, non-cancer), 72 h"}, "[16]": {"system": "multicellular spheroids formed from HepG2 cells", "experiment": "3D multicellular spheroid culture, alamar blue", "format": "cell-based, human", "conditions": "HepG2 3D spheroids, 72 h", "protocol": "HepG2 cells were cultivated in 3D multicellular spheroids. Briefly, 100 μL of cell solution (0.5 × 10^6 cells/mL) was added to a 96-well plate with a cell-repellent surface (Greiner Bio-One, Kremsmünster, Austria) and cultured in complete medium plus 3% Matrigel (BD Biosciences, San Jose, CA, USA). Spheroids with stable structures formed after three days. Then, the spheroids were exposed to a range of drug concentrations for 72 h. The negative control received the vehicle that was used for diluting the complex tested. In the end of the experiment, morphological changes were examined by light microscopy (Olympus BX41, Tokyo, Japan) using Image-Pro software (Media Cybernetics, Inc. Silver Spring, USA), and cell viability was quantified by alamar blue assay as described above."}, "[17]": {"system": "HepG2 cells", "format": "cell-based, human", "conditions": "DOX 2 µM, OXA 10 µM, RCX 12 µM", "protocol": "Briefly, the cells were harvested in a permeabilization solution containing 0.1% Triton X-100, 2 µg/mL PI, 0.1% sodium citrate and 100 µg/mL RNAse (all from Sigma-Aldrich) and incubated in the dark for 15 min at room temperature. Finally, cell fluorescence was measured by flow cytometry with a BD LSRFortessa cytometer using BD FACSDiva Software (BD Biosciences) and FlowJo Software 10 (FlowJo Lcc; Ashland, OR, USA). Ten thousand events were evaluated per experiment, and cellular debris was omitted from the analysis."}, "[18]": {"system": "HepG2 cells", "experiment": "Annexin V/PI staining assay (flow cytometry)", "experimental": "For apoptosis detection, we used the FITC Annexin V Apoptosis Detection Kit I (BD Biosciences), and the analysis was performed according to the manufacturer’s instructions. Briefly, cells were washed twice with saline and then resuspended in 100 μL of binding buffer with 5 μL of PI and 5 μL of FITC Annexin V. The cells were gently mixed by vortexing and incubated for 15 min at room temperature in the dark. Afterwards, 400 μL of binding buffer was added to each tube, and the cell fluorescence was determined by flow cytometry, as described above. The percent of viable, early apoptotic, late apoptotic and necrotic cells were determined. […] The cells were then trypsinized, and the FITC Annexin V Apoptosis Detection assay was conducted as described above."}, "[19]": {"system": "panel of 15 cancer cell lines and 3 non-cancer cells", "experiment": "Alamar blue cytotoxicity assay, whole panel", "format": "cell-based", "conditions": "any cells of the panel, 72 h", "protocol": "A panel of 15 cancer cell lines, 3 non-cancer cells and 1 mutant and its parental cell line were selected for this study, as detailed in Table S5. The cells were cultured in RPMI 1640 medium (Gibco-BRL, Gaithersburg, MD, USA) with 10% fetal bovine serum (Life, Carlsbad, CA, USA), 2 mM L-glutamine (Vetec Química Fina, Duque de Caxias, RJ, Brazil) and 50 μg/mL gentamycin (Life, Carlsbad, CA, USA). Adherent cells were collected by treatment with 0.25% trypsin EDTA solution (Gibco-BRL). All cell lines were cultured in flasks at 37 °C in 5% CO2 and subcultured every 3–4 days to maintain exponential growth. All cell lines were tested for mycoplasma using a mycoplasma stain kit (Sigma-Aldrich) to validate the use of cells free from contamination. […]\nCell viability was quantified colorimetrically using the alamar blue assay according to Ahmed et al.[34]. […] Absorbance was measured at 570 nm and 600 nm using the SpectraMax 190 Microplate Reader (Molecular Devices, Sunnyvale, CA, USA), and the drug effect was quantified as a percent of the absorbance of the control-treated cells."}, "[20]": {"conditions": "peripheral blood, i.p. 21 days, RCX 2.5 mg/kg"}, "[21]": {"conditions": "HepG2, 2 h pretreatment (50 µM Z-VAD(Ome)-FMK, 20 µM Z-IETD-FMK, 20 µM Z-LEHD-FMK, 5 µM U-0126, 5 µM SP 600125, 5 µM PD 169316, 10 µM cyclic pifithrin-α), then 12 µM RCX 48 h"}}, "note": "Like-named read-outs stand apart in the source and are kept apart here. Marks after values point to notes of the source that are not given here. Residues, ends and D or L forms follow the SMILES beside them. *: point of attachment. Cbz = O=C(OCc1ccccc1)*; CH2F = FC*;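 for Final body weight: mice bearing subcutaneous HepG2 xenografts, given intraperitoneal doses once daily for 21 days, weighed at start and end, blood leukocytes counted by light microscopy on day 22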;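 for Heart relative weight: mice bearing subcutaneous HepG2 xenografts, given intraperitoneal doses once daily for 21 days, weighed at start and end, blood leukocytes counted by light microscopy on day 22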;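 for Initial body weight: mice bearing subcutaneous HepG2 xenografts, given intraperitoneal doses once daily for 21 days, weighed at start and end, blood leukocytes counted by light microscopy on day 22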;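 for Kidney relative weight: mice bearing subcutaneous HepG2 xenografts, given intraperitoneal doses once daily for 21 days, weighed at start and end, blood leukocytes counted by light microscopy on day 22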", "data": [{"smiles": "O=c1[nH]cc(F)c(=O)[nH]1", "note": "[5-FU, 5-fluorouracil]", "values": [{"measurement": "IC50", "setting": "[1]", "value": 1.7, "unit": "µM"}, {"measurement": "IC50", "setting": "[2]", "value": 7.3, "unit": "µM"}, {"measurement": "reduction of tumor weight", "setting": "[3]", "value": 40.3, "unit": "%"}, {"measurement": "Initial body weight", "setting": "[4]; before treatment, RCX 2.5 mg/kg groups", "value": "25.2 ± 0.4", "unit": "g"}, {"measurement": "Final body weight", "setting": "[4]; i.p. 21 days, RCX 2.5 mg/kg", "value": "24.1 ± 1.7", "unit": "g"}, {"measurement": "Heart relative weight", "setting": "[4]; i.p. 21 days, RCX 2.5 mg/kg", "value": "0.5 ± 0.2", "unit": "g/100 g body weight"}, {"measurement": "Kidney relative weight", "setting": "[4]; i.p. 21 days, RCX 2.5 mg/kg", "value": "1.2 ± 0.4", "unit": "g/100 g body weight"}, {"measurement": "Liver relative weight", "setting": "[4]; i.p. 21 days, RCX 2.5 mg/kg", "value": "3.4 ± 0.7", "unit": "g/100 g body weight"}, {"measurement": "Lung relative weight", "setting": "[4]; i.p. 21 days, RCX 2.5 mg/kg", "value": "0.6 ± 0.2", "unit": "g/100 g body weight"}, {"measurement": "Survival", "setting": "[4]; i.p. 21 days, RCX 2.5 mg/kg", "value": "9/15"}, {"measurement": "Differential leukocytes: Eosinophils", "setting": "[4]; [20]", "value": 1.0, "unit": "%"}, {"measurement": "Differential leukocytes: Lymphocytes", "setting": "[4]; [20]", "value": 32.8, "unit": "%"}, {"measurement": "Differential leukocytes: Monocytes", "setting": "[4]; [20]", "value": 1.3, "unit": "%"}, {"measurement": "Differential leukocytes: Neutrophils", "setting": "[4]; [20]", "value": 65.0, "unit": "%"}, {"measurement": "Erythrocytes", "setting": "[4]; [20]", "value": "8.4 ± 0.5 10^6cells/μL"}, {"measurement": "Total leukocytes", "setting": "[4]; [20]", "value": "1.8 ± 0.3* 10^3cells/μL"}]}, {"smiles": "O=C1c2c(O)ccc(O)c2C(=O)c2c(NCCNCCO)ccc(NCCNCCO)c21", "note": "[Mitoxantrone]", "values": [{"measurement": "reduction of DNA synthesis", "setting": "[5]", "value": 55.2, "unit": "%"}]}, {"smiles": "CC(=O)N[C@@H](CS)C(=O)O", "note": "[N-acetyl-L-cysteine]", "values": [{"measurement": "protection against RCX-induced reduction in viable cells", "setting": "[6]; HepG2, 1 h pretreatment with 5 mM NAC, then 12 µM RCX for 24 h", "value": "did not prevent the reduction in the number of viable cells"}]}, {"smiles": "O=C1[O][Pt]2([NH][C@@H]3CCCC[C@H]3[NH]2)[O]C1=O", "note": "[OXA, oxaliplatin]", "values": [{"measurement": "IC50", "setting": "[7]", "value": 4.1, "unit": "µM"}, {"measurement": "IC50", "setting": "[8]", "value": 2.2, "unit": "µM"}, {"measurement": "IC50", "setting": "[9]", "value": 3.3, "unit": "µM"}, {"measurement": "IC50", "setting": "[10]", "value": 7.7, "unit": "µM"}, {"measurement": "IC50", "setting": "[11]", "value": 0.6, "unit": "µM"}, {"measurement": "IC50", "setting": "[12]", "value": 1, "unit": "µM"}, {"measurement": "IC50", "setting": "[13]", "value": 2.2, "unit": "µM"}, {"measurement": "IC50", "setting": "[14]", "value": 9.5, "unit": "µM"}, {"measurement": "IC50", "setting": "[15]", "value": 9.4, "unit": "µM"}, {"measurement": "IC50", "setting": "[16]", "value": 6.6, "unit": "µM"}, {"measurement": "change in the number of viable cells", "setting": "[6]; HepG2, 24 h, DOX 2 µM, OXA 10 µM", "value": "reduced the number of viable cells"}, {"measurement": "DNA content S", "setting": "[17]; HepG2, 12 h", "value": "12.9 ± 4.4", "unit": "%"}, {"measurement": "DNA content S", "setting": "[17]; HepG2, 24 h", "value": "18.5 ± 1.4", "unit": "%"}, {"measurement": "DNA content S", "setting": "[17]; HepG2, 48 h", "value": "21.2 ± 1.7", "unit": "%"}, {"measurement": "DNA content S", "setting": "[17]; HepG2, 72 h", "value": "16.2 ± 1.1", "unit": "%"}]}, {"smiles": "Oc1c2ccccc2c2c3c(cccc13)N=N2", "note": "[SP 600125]", "values": [{"measurement": "effect of inhibitor pretreatment on RCX-induced apoptosis", "setting": "[18]; [21]", "value": "did not prevent RCX-induced apoptosis"}]}, {"smiles": "N#CC(=C(/N)Sc1ccccc1N)/C(C#N)=C(/N)Sc1ccccc1N", "note": "[U-0126]", "values": [{"measurement": "effect of inhibitor pretreatment on RCX-induced apoptosis", "setting": "[18]", "value": "prevented RCX-induced apoptosis"}]}, {"smiles": "CC[C@H](C)[C@H](NC(=O)OCc1ccccc1)C(=O)N[C@@H](CCC(=O)OC)C(=O)N[C@H](C(=O)N[C@@H](CC(=O)OC)C(=O)CF)[C@@H](C)O", "note": "[Z-IETD-FMK] (Cbz-IE(OMe)TD(OMe)-CH2F)", "values": [{"measurement": "effect of inhibitor pretreatment on RCX-induced apoptosis", "setting": "[18]", "value": "prevented the RCX-induced apoptosis"}]}, {"smiles": "COC(=O)CC[C@H](NC(=O)[C@H](CC(C)C)NC(=O)OCc1ccccc1)C(=O)N[C@@H](Cc1cnc[nH]1)C(=O)N[C@@H](CC(=O)OC)C(=O)CF", "note": "[Z-LEHD-FMK] (Cbz-LE(OMe)HD(OMe)-CH2F)", "values": [{"measurement": "effect of inhibitor pretreatment on RCX-induced apoptosis", "setting": "[18]; [21]", "value": "prevented the RCX-induced apoptosis"}]}, {"smiles": "COC(=O)C[C@H](NC(=O)[C@H](C)NC(=O)[C@@H](NC(=O)OCc1ccccc1)C(C)C)C(=O)CF", "note": "[Z-VAD(OMe)-FMK] (Cbz-Val-Ala-Asp(OMe)-CH2F)", "values": [{"measurement": "effect of inhibitor pretreatment on RCX-induced apoptosis", "setting": "[18]", "value": "prevented the RCX-induced apoptosis"}]}, {"smiles": "Cc1ccc(-c2cn3c4c(sc3n2)CCCC4)cc1", "note": "[cyclic pifithrin-α]", "values": [{"measurement": "effect of inhibitor pretreatment on RCX-induced apoptosis", "setting": "[18]", "value": "did not prevent the RCX-induced apoptosis"}]}, {"smiles": "COc1cc(O)c(C(C)=O)c(OC)c1", "note": "[xanthoxylin, 2-hydroxy-4,6-dimethoxyacetophenone]", "values": [{"measurement": "IC50", "setting": "[19]", "value": "> 127", "unit": "µM"}]}]}
